Results taken from patent publication US10017492B2 (KANGPU BIOPHARMACEUTICALS, LTD., priority 2014, dated 2018).
pIC50: −log10 of the molar value.

Experiments:
[1] = system: TNF-α; experiment: TNF-α activity inhibiting assay (LPS-stimulated peripheral blood, ELISA); format: cell-based, human; details: Homo sapiens, compound 100 nM, diluted peripheral blood of healthy volunteers, LPS 10 ng/mL, 6 hours, read-out: Inhibitory Rate on TNF-α (%)
Experimental: TNF-α Activity Inhibiting Assay
Peripheral blood from healthy volunteers was collected and collected with EDTA anticoagulant tubes. After being diluted 5-fold with 1640 medium (Gibco, catalog number 11875-093, USA), the blood was added to 96-well cell culture plates (Costar, catalog number 3599, USA) and then treated with 10 μL solution of the compound of general formula (I) of the present invention in DMSO (Sigma, catalog number D2650, USA). The final concentration of the compound was 100 nM, and the final concentration of DMSO was 0.2%. After incubation for 60 minutes in an incubator at 37° C. under 5% CO2, 10 μL LPS (Sigma, catalog number L-2880, USA) was added to the reaction system, and the final concentration was 10 ng/mL. After further culturing for 6 hours in the incubator at 37° C. under 5% CO2, the supernatant was collected. The content of TNF-α was determined by ELISA (BD Biosciences, catalog number 555212, USA). Absorbance was detected at OD450 nm with a microplate reader, with OD 650 nm as reference. The control, a solution containing 0.2% DMSO medium, was as 0% inhibition. Raw data and standard curves were recorded. The four-parameter drug inhibition curve was plotted by XL-fit software and the inhibition rate of each compound was calculated, as shown in Table 1.

[2] = system: Rec-1 cells (Mantle cell lymphoma cells); experiment: CTG cell proliferation assay, Rec-1 cells; format: cell-based; details: Homo sapiens, Rec1, 72-120 hours, CellTiter-Glo, read-out: IC50 Value of Rec-1 Inhibition
Experimental: (§1) CTG Cell Proliferation Assay
(§2) Rec-1 cells (Mantle cell lymphoma cells) (ATCC, catalog number CRL-3004), Namalwa.CSN/70 cells (Burkitt lymphoma cells) (DSMZ, catalog number ACC-70), and WSU-DLCL-2 cells (diffuse large B cell lymphoma cells) (DSMZ, catalog number ACC-575) were seeded at (5-15)×10^3 per well to a 96-well plate with transparent bottom and white wall (Corning, catalog number CLS3903) containing specific medium. The plate was placed in an incubator and incubated for 24 hours at 37° C. under 5% CO2. Compounds were prepared as 150 mM stock solutions with DMSO (Sigma, catalog number 276855), and were diluted with the medium to the desired concentration (the final concentration of DMSO was 0.2%) and then were added to each well, incubated in an incubator for 72-120 hours at 37° C. under 5% CO2. Then, 100 μl CellTiter-Glo® cell activity assay reagent (Promega, catalog number G7570) was added to each well. Mixing proceeded for 10 minutes on a shaker to induce cytolysis. The 96-well plate was placed at room temperature for 10 minutes to make the luminous signal stable. A white base film was pasted at the bottom of the culture plate. EnSpire was used to test the plate.

[3] = system: WSU-DLCL-2 cells (diffuse large B cell lymphoma cells); experiment: CTG cell proliferation assay, WSU-DLCL-2 cells; format: cell-based; details: Homo sapiens, WSUDLCL2, WSU-DLCL-2 cells, 72-120 hours, CellTiter-Glo; read-out: IC50 Value of WSU-DLCL2 Inhibition
Experimental: as §1, §2

[4] = system: MM.1S cells (myeloma cells); experiment: Cell proliferation assay (MTS), MM.1S myeloma cells; format: cell-based; details: Homo sapiens, MM1.S, 72 hours, read-out: IC50 values of MMIS Inhibition
Experimental: MM.1S cells (myeloma cells) (ATCC, catalog number CRL-2974) were seeded at 1.8×10^3 per well to a 96-well culture plate containing […] (Gibco, catalog number A10491-01), and were incubated in an incubator for 24 hours at 37° C. under 5% CO2. Compounds were prepared as 20 mM stock solutions with DMSO (Sigma, catalog number D2650), and were diluted with the medium to the desired concentration (the final concentration of DMSO was 0.5%) and then were added to each well, incubated in an incubator for 72 hours at 37° C. under 5% CO2. Then, 20 μL MTS (Promega, catalog number G3581) was added to each well, and further incubated for 1-4 hours in an incubator at 37° C. under 5% CO2. OD490 nm was detected with OD650 nm as reference. The control, a solution containing 0.5% DMSO medium, was as 0% inhibition. GraphPad Prism 5 was used, slope was allowed to change to make the dose-effect curve and IC50 values were calculated, shown in table 2 for details.

[5] = system: Namalwa.CSN/70 cells (Burkitt lymphoma cells); experiment: CTG cell proliferation assay, Namalwa.CSN/70 cells; format: cell-based; details: 72-120 hours, CellTiter-Glo, read-out: IC50 Value of Namalwa.CSN/70 Inhibition
Experimental: as §1, §2

| Compound | inhibition at 0.1 µM [1] | pIC50 [2] | pIC50 [3] | pIC50 [4] | pIC50 [5] |
| --- | --- | --- | --- | --- | --- |
| Nc1cc(F)cc2c1CN([C@H]1CCC(=O)NC1=O)C2=O [Compound I-29] | > 50% | > 7.00 | < 3.52 | > 6.52 | < 3.52 |
| COc1ccc(COc2cccc3c2CN(C2CCC(=O)NC2=O)C3=O)c(F)c1 (stereo not drawn) [Compound A329, 3-(4-((2-fluoro-4-methoxybenzyl)oxy)-1-oxoisoindolin-2-yl)piperidine-2,6-dione] | ≥ 50% | > 7.00 | < 3.52 | > 6.52 | 3.52 to 6.40 |
| O=C1CCC(N2Cc3c(NCc4cc(CN5CCOCC5)ccc4F)cccc3C2=O)C(=O)N1 (stereo not drawn) [Compound A383, 3-(4-((2-fluoro-5-(morpholinomethyl)benzyl)amino)-1-oxoisoindolin-2-yl)piperidine-2,6-dione] | ≥ 50% | 6.40 to 7.00 | 3.52 to 6.40 | > 6.52 | < 3.52 |
| [2H][C@]1(N2Cc3c(NCc4ccc(CN5CCOCC5)cc4F)cccc3C2=O)CCC(=O)NC1=O [Compound A402] | ≥ 50% | > 7.00 | > 7.00 | > 6.52 | < 3.52 |
| [2H][C@]1(N2Cc3c(OCc4cc(CN5CCOCC5)ccc4F)cccc3C2=O)CCC(=O)NC1=O [Compound A403, (S)-3-deuterium-3-(4-((2-fluoro-5-(morpholinomethyl)benzyl)oxy)-1-oxoisoindolin-2-yl)piperidine-2,6-dione] | ≥ 50% | > 7.00 | 3.52 to 6.40 | > 6.52 | < 3.52 |
| O=C1CCC(N2Cc3c(OCc4ccc(CN5CCOCC5)cc4F)cccc3C2=O)C(=O)N1 (stereo not drawn) [Compound A386, 3-(4-((2-fluoro-4-(morpholinomethyl)benzyl)oxy)-1-oxoisoindolin-2-yl)piperidine-2,6-dione] | ≥ 50% | > 7.00 | > 7.00 | > 6.52 | < 3.52 |
| Nc1cc(F)cc2c1CN([C@@H]1CCC(=O)NC1=O)C2=O [Compound I-30] | – | > 7.00 | < 3.52 | > 6.52 | < 3.52 |
| COc1ccc(F)c(CNc2cccc3c2CN(C2CCC(=O)NC2=O)C3=O)c1 (stereo not drawn) [Compound A195, 3-(4-((2-fluoro-5-methoxybenzyl)amino)-1-oxoisoindolin-2-yl)piperidine-2,6-dione] | – | > 7.00 | < 3.52 | > 6.52 | < 3.52 |
| [2H][C@@]1(N2Cc3c(N)cc(F)cc3C2=O)CCC(=O)NC1=O [Compound I-32] | > 50% | 6.40 to 7.00 | < 3.52 | ≤ 6.52 | < 3.52 |
| O=C1CCC(N2Cc3c(OCc4cccc(CN5CCOCC5)c4F)cccc3C2=O)C(=O)N1 (stereo not drawn) [Compound A399, 3-(4-((2-fluoro-3-(morpholinomethyl)benzyl)oxy)-1-oxoisoindolin-2-yl)piperidine-2,6-dione] | ≥ 50% | > 7.00 | 3.52 to 6.40 | > 6.52 | < 3.52 |
| O=C1CCC(N2Cc3c(OCc4ccc(CN5CCOCC5)cc4F)cc(F)cc3C2=O)C(=O)N1 (stereo not drawn) [Compound A407] | < 50% | > 7.00 | 3.52 to 6.40 | > 6.52 | < 3.52 |
| Nc1cccc2c1CN(C1CCC(=O)NC1=O)C2=O (stereo not drawn) [Lenalidomide, 3-(4-amino-1,3-dihydro-1-oxo-2H-isoindole-2-yl)-piperidine-2,6-dione, reference compound] | < 50% | 6.40 to 7.00 | < 3.52 | ≤ 6.52 | < 3.52 |
| CNc1cccc(CNc2cccc3c2CN(C2CCC(=O)NC2=O)C3=O)c1F (stereo not drawn) [Compound A372, 3-(4-((2-fluoro-3-(methylamino)benzyl)amino)-1-oxoisoindolin-2-yl)piperidine-2,6-dione] | ≥ 50% | – | – | > 6.52 | – |
